Measurements: patent US8017611B2, “Pyridine and pyrazine derivatives -083” (AstraZeneca AB, priority 2007, dated 2011)
Marks after values point to notes of the source that are not given here.

Target: T1, recombinant Axl tyrosine kinase (Homo sapiens, UniProt P30530)
T1 construct: encompassing amino acids 473 to 894 of Axl; GST (N); made in house; host or cells: SF126 insect cells
T1 sequence (P30530 473-894): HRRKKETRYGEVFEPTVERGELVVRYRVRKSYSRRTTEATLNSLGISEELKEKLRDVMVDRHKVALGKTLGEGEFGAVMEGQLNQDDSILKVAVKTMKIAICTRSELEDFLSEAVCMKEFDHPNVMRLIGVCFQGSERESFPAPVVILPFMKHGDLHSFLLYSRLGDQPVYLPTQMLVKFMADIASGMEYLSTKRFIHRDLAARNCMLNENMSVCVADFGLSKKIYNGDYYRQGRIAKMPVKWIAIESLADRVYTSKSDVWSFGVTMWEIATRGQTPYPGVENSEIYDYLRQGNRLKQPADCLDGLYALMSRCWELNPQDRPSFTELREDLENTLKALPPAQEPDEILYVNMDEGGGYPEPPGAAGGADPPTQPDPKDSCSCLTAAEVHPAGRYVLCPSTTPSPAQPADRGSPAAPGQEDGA
Experiment: In vitro Axl kinase assay (AlphaScreen), Test (a)
Assay type: biochemical
Conditions: for % Axl tyrosine kinase inhibition at 1 μM concentration / inhibition at 1 µM: test compound at 1 μM, first value quoted; for inhibition at 1 µM: read-out: % Axl tyrosine kinase inhibition at 1 μM concentration; for % of Axl tyrosine kinase activity inhibited at a concentration of 30 μM: test compound at 30 μM; for % Axl tyrosine kinase inhibition at 1 μM concentration (second value, †): mean calculated from a larger number of replicates than the first value
Method: Test compounds were prepared as 10 mM stock solutions in dimethylsulphoxide (DMSO) and diluted in DMSO as required. Aliquots (120 nl) of compound dilutions were filled into the wells of a Greiner 384-well low volume (LV) white polystyrene plate (Greiner Bio-one) using acoustic dispensing (Labcyte Echo 550). A 10 μl mixture of recombinant purified Axl enzyme, biotinylated peptide substrate (Biotin poly-GAT; CisBio, Catalogue No. 61GATBLB), 0.2 μM adenosine triphosphate (ATP) and a buffer solution [comprising 20 mM Tris-HCl pH 7.5 buffer, 0.01% v/v Tween, 5 mM dithiothreitol (DTT) and 10 mM manganese chloride] was incubated with the compounds at room temperature for 20 minutes.
Control wells that produced a minimum signal corresponding to 100% inhibited enzyme were created by adding 10 μM of Staurosporine.
The percentage kinase inhibition value is the percentage of Axl tyrosine kinase activity inhibited by the test compound at a concentration of 1 μM.

| % Axl tyrosine kinase inhibition at 1 μM concentration | Structure (SMILES) | further results |
| --- | --- | --- |
| 100.0% | CCN1CCC(n2cc(-c3cnc(N)c(-c4nc5ccccc5o4)c3)cn2)CC1 [Example 4.1] |  |
|  | CC(C)N1CCC(n2cc(-c3cnc(N)c(-c4nc5ccccc5o4)c3)cn2)CC1 [Example 5, 3-(1,3-Benzoxazol-2-yl)-5-[1-(1-isopropyl-4-piperidyl)pyrazol-4-yl]pyridin-2-amine] | inhibition at 1 µM: 100% |
|  | CN1CCC(n2cc(-c3cnc(N)c(-c4nc5c(F)cccc5o4)c3)cn2)CC1 [Example 6, 3-(4-Fluoro-1,3-benzoxazol-2-yl)-5-[1-(1-methyl-4-piperidyl)pyrazol-4-yl]pyridin-2-amine] | inhibition at 1 µM: 99.9% |
| 99.9% | CN1CCC(n2cc(-c3cnc(N)c(-c4nc5cc(F)ccc5o4)c3)cn2)CC1 [Example 7.1] |  |
| 99.6% | CC(C)c1ccc2nc(-c3cc(-c4cnn(C5CCN(C)CC5)c4)cnc3N)oc2c1 [Example 7.4] |  |
| 99.1% | CN1CCC(n2cc(-c3cnc(N)c(-c4nc5cc(Br)ccc5o4)c3)cn2)CC1 [Example 7.5] |  |
| 99.9% | CN1CCC(n2cc(-c3cnc(N)c(-c4nc5c(F)cc(F)cc5o4)c3)cn2)CC1 [Example 7.6] |  |
| 99.0% | CN1CCC(n2cc(-c3cnc(N)c(-c4nc5ccc(Cl)cc5o4)c3)cn2)CC1 [Example 7.7] |  |
| 99.7% | Cc1ccc2nc(-c3cc(-c4cnn(C5CCN(C)CC5)c4)cnc3N)oc2c1 [Example 7.9] |  |
| 95.7% | CN1CCC(n2cc(-c3cnc(N)c(-c4nc5ccc(OC(F)(F)F)cc5o4)c3)cn2)CC1 [Example 7.10] |  |
| 98.1% | CN1CCC(n2cc(-c3cnc(N)c(-c4nc5cc(C(F)(F)F)ccc5o4)c3)cn2)CC1 [Example 7.11] |  |
|  | Nc1ncc(-c2cnn(C3CCNCC3)c2)cc1-c1nc2cnccc2o1 [Example 8, 3-Oxazolo[4,5-c]pyridin-2-yl-5-[1-(4-piperidyl)pyrazol-4-yl]pyridin-2-amine] | inhibition at 1 µM: 99.2% |
| 95.6% | Nc1ncc(-c2cccc(CN3CCCC3)c2)cc1-c1nc2cnccc2o1 [Example 8A.1] |  |
| 99.2% | Nc1ncc(-c2ccc(S(=O)(=O)NCCO)cc2)cc1-c1nc2cnccc2o1 [Example 8A.2] |  |
|  | CS(=O)(=O)c1cccc(-c2cnc(N)c(-c3nc4cnccc4o3)c2)c1 [Example 8A.3] | % of Axl tyrosine kinase activity inhibited at a concentration of 30 μM: ^###the compound disclosed in Example 8A.3 inhibited 100% of Axl tyrosine kinase activity at a concentration of 30 μM. |
| 89.8% | Nc1ncc(-c2cccc(N3CCOCC3)c2)cc1-c1nc2cnccc2o1 [Example 8A.4] | % Axl tyrosine kinase inhibition at 1 μM concentration (second value, †): 86.6% |
| 96.8% | Nc1ncc(-c2ccc(CO)s2)cc1-c1nc2cnccc2o1 [Example 8A.5] |  |
| 97.7% | CNS(=O)(=O)c1cccc(-c2cnc(N)c(-c3nc4cnccc4o3)c2)c1 [Example 8A.6] |  |
| 87.8% | Nc1ncc(-c2cccc(C(=O)NC3CC3)c2)cc1-c1nc2cnccc2o1 [Example 8A.7] |  |
| 97.1% | Nc1ncc(-c2ccc(C(=O)N3CCC(O)CC3)cc2)cc1-c1nc2cnccc2o1 [Example 8A.8] |  |
| 98.7% | NC(=O)c1ccc(-c2cnc(N)c(-c3nc4cnccc4o3)c2)cc1 [Example 8A.9] |  |
| 13.1***** % | Cc1ccc(S(=O)(=O)N2CCOCC2)cc1-c1cnc(N)c(-c2nc3cnccc3o2)c1 [Example 8A.10] | % of Axl tyrosine kinase activity inhibited at a concentration of 30 μM: *****the compound disclosed in Example 8A.10 inhibited 79.5% of Axl tyrosine kinase activity at a concentration of 30 μM. |
| 89.6% | N#Cc1cccc(-c2cnc(N)c(-c3nc4cnccc4o3)c2)c1 [Example 8A.11] |  |
| 97.8% | Nc1ncc(-c2ccc(C(=O)N3CCOCC3)cc2)cc1-c1nc2cnccc2o1 [Example 8A.12] |  |
| 71.3% | Nc1ncc(-c2cccc(S(=O)(=O)N3CCOCC3)c2)cc1-c1nc2cnccc2o1 [Example 8A.13] |  |
| 99.4% | N#CCc1ccc(-c2cnc(N)c(-c3nc4cnccc4o3)c2)cc1 [Example 8A.16] |  |
| 99.8% | CN(C)CCCNC(=O)c1ccc(-c2cnc(N)c(-c3nc4cnccc4o3)c2)cc1 [Example 8A.17] |  |

| % Axl tyrosine kinase inhibition at 1 μM concentration | Structure (SMILES) | further results |
| --- | --- | --- |
| 98.9% | Nc1ncc(-c2ccc(CN3CCOCC3)cc2)cc1-c1nc2cnccc2o1 [Example 8A.18] | % Axl tyrosine kinase inhibition at 1 μM concentration (second value, †): 99.0% |
| 94.3% | CN1CCN(C(=O)c2cccc(-c3cnc(N)c(-c4nc5cnccc5o4)c3)c2)CC1 [Example 8A.19] |  |
| 95.2% | Nc1ncc(-c2cccc(CN3CCCCC3)c2)cc1-c1nc2cnccc2o1 [Example 8A.20] |  |
| 85.8% | Nc1ncc(-c2cccc(N3CCCCC3)c2)cc1-c1nc2cnccc2o1 [Example 8A.21] |  |
| 95.3% | Nc1ncc(-c2cccc(C(=O)NCCN3CCCC3)c2)cc1-c1nc2cnccc2o1 [Example 8A.22] |  |
| 99.1% | NCc1ccc(-c2cnc(N)c(-c3nc4cnccc4o3)c2)cc1 [Example 8A.23] |  |
| 95.6% | CN(C)CCNC(=O)c1cccc(-c2cnc(N)c(-c3nc4cnccc4o3)c2)c1 [Example 8A.24] |  |
| 98.7% | Nc1ncc(-c2ccc(C(=O)NCCO)cc2)cc1-c1nc2cnccc2o1 [Example 8A.25] |  |
| 98.6% | NCc1cccc(-c2cnc(N)c(-c3nc4cnccc4o3)c2)c1 [Example 8A.27] |  |
| 97.5% | Nc1ncc(-c2cccc(-c3ccn[nH]3)c2)cc1-c1nc2cnccc2o1 [Example 8A.28] |  |
|  | Nc1ncc(-c2cnn(C3CCNCC3)c2)cc1-c1nc2cccnc2o1 [Example 9, 3-Oxazolo[5,4-b]pyridin-2-yl-5-[1-(4-piperidyl)pyrazol-4-yl]pyridin-2-amine] | inhibition at 1 µM: 98.8% |
| 89.8% | N#Cc1cccc(-c2cnc(N)c(-c3nc4cccnc4o3)c2)c1 [Example 9A.1] |  |
| 97.0% | Nc1ncc(-c2ccc(C(=O)NCCO)cc2)cc1-c1nc2cccnc2o1 [Example 9A.2] |  |
| 73.4% | CC(C)(C)OC(=O)N1CCC(C(=O)Nc2cccc(-c3cnc(N)c(-c4nc5cccnc5o4)c3)c2)CC1 [Example 9A.3] |  |
| 75.2% | CN(C)CCNC(=O)c1cccc(-c2cnc(N)c(-c3nc4cccnc4o3)c2)c1 [Example 9A.5] |  |
| 95.6% | Nc1ncc(-c2ccc(C(=O)N3CCC(O)CC3)cc2)cc1-c1nc2cccnc2o1 [Example 9A.6] |  |
| 91.7% | CCN(CC)CCNC(=O)c1cccc(-c2cnc(N)c(-c3nc4cccnc4o3)c2)c1 [Example 9A.7] |  |
| 96.5% | Nc1ncc(-c2cccc(CN3CCCC3)c2)cc1-c1nc2cccnc2o1 [Example 9A.8] |  |
| 95.3% | Nc1ncc(-c2cccc(CN3CCCCC3)c2)cc1-c1nc2cccnc2o1 [Example 9A.9] |  |
| 98.8% | CN(C)CCCNC(=O)c1ccc(-c2cnc(N)c(-c3nc4cccnc4o3)c2)cc1 [Example 9A.11] |  |
| 98.3% | NCc1ccc(-c2cnc(N)c(-c3nc4cccnc4o3)c2)cc1 [Example 9A.13] |  |
| 97.0% | Nc1ncc(-c2ccc(S(=O)(=O)NCCO)cc2)cc1-c1nc2cccnc2o1 [Example 9A.14] |  |
| 97.7% | N#CCc1ccc(-c2cnc(N)c(-c3nc4cccnc4o3)c2)cc1 [Example 9A.16] |  |
| 73.2% | Nc1ncc(-c2cccc(C(=O)NC3CC3)c2)cc1-c1nc2cccnc2o1 [Example 9A.17] |  |
| 80.8% | CN1CCN(C(=O)c2cccc(-c3cnc(N)c(-c4nc5cccnc5o4)c3)c2)CC1 [Example 9A.18] |  |
| 95.6% | Nc1ncc(-c2ccc(CO)s2)cc1-c1nc2cccnc2o1 [Example 9A.19] |  |
| 95.6% | Nc1ncc(-c2ccc(CN3CCOCC3)cc2)cc1-c1nc2cccnc2o1 [Example 9A.21] |  |

| Structure (SMILES) | % Axl tyrosine kinase inhibition at 1 μM concentration | further results |
| --- | --- | --- |
| Nc1ncc(-c2cccc(NC(=O)C3CCNCC3)c2)cc1-c1nc2cnccc2o1 [Example 8A.26] | 97.9% |  |
